Laboratory results as given in ChEMBL document CHEMBL3272075, “Direct measurement of octanol-water partition coefficients by high-pressure liquid chromatography” (J Med Chem, 1976).

Columns and labels:
physchem [1] = conditions: octanol/water
Description: Partition coefficient, log P of the compound by HPLC analysis

physchem [2] = conditions: octanol/water; remark: listed apart in the source
Description: Partition coefficient, log P of the compound by shake-flask technique

Structure (SMILES) | logP (physchem [1]) | logP (physchem [2])
Brc1cnc2ccccc2c1 | 3.03 | 
Cc1ccnc2ccccc12 | 2.52 | 
Cc1cccnc1 [3-METHYLPYRIDINE] | 1.2 | 
CC(=O)Nc1ccccc1 [ACETANILIDE] | 1.14 | 1.16
c1ccc2nc3ccccc3cc2c1 [ACRIDINE] | 3.39 | 3.4
COc1ccccc1 [ANISOLE] | 2.1 | 
Nc1ccncc1 [DALFAMPRIDINE] | 0.26 | 0.28
c1ccc2cnccc2c1 [ISOQUINOLINE] | 2.09 | 2.08
c1ccc2nc3ccccc3nc2c1 [PHENAZINE] | 2.81 | 2.85
CC(=O)Nc1ccc(OCC(O)CNC(C)C)cc1 (stereo not drawn) [PRACTOLOL] | 0.78 | 0.79
c1ccc2ncccc2c1 [QUINOLINE] | 2.04 | 2.03
